Results on one sequence are retold here after patent US10201610B2, “Interference peptides and use thereof” (The University of Western Australia, priority 2014, dated 2019).

Ends that are not written are not given here.

In assay [1] the test system is caspase 3 activity in SUM149PT cells. The assay can be described thus: Caspase-3 colorimetric assay in SUM149PT cells. The assay is classed as cell-based, human. The conditions noted are these: 8 hours, compared with non-treated or iPep624ΔHEX-treated cells. From the text:
The EN1-iPeps and iPep controls were first tested in SUM149PT cells carrying high EN1 expression. Cells were first treated with a full-length 29-mer peptide (iPep624) comprising the N-terminal, less conserved amino acid sequences, the hexamotif, and the C-terminal tail. As a control, the inventors generated the iPep624ΔHEX in which the hexamotif was mutated from the wild type (wt) WPAWVY (SEQ ID NO: 13) to the GAAGAG (SEQ ID NO: 15) sequence. These mutations were expected to dramatically abolish the activity of the peptide. Both peptides were included in the culture medium of the basal cancer cells in increasing (0-100 μM) concentrations and incubated for 8 hours at 37° C. Treated cells were first analyzed using the Cell Titer Glo assay, which monitors metabolic viability. […] This calculated value of IC50 is in the range of concentrations observed with other peptides delivered with CPPs.
Detection of apoptosis was performed with a Caspase-3 colorimetric assay (Sigma-Aldrich, St Louis, Mo.) according to the manufacturer's instructions.

A further assay deals with SUM159PT. In words: Cell Titer Glo cell viability assay, breast cancer cell line panel. The assay is classed as cell-based. The conditions noted are these: 8 hours. Here is the method:
(§1) To test the specificity of the EN1-iPep in cell lines expressing EN1, the inventors delivered the iPeps into a panel of breast cancer cell lines expressing different amounts of EN1.
(§2) All peptides were synthetized at the UNC High-Throughput Peptide Synthesis and Array Facility at UNC. Taxol, Rotenone and Halofuginone (Sigma-Aldrich, St Louis, Mo.) were dissolved in DMSO. A total of […] or 1×10^3 breast cells for peptide and drug treatment respectively, were seeded in 96-well plates. Cells were exposed for 8 hours to the peptide and 48 to 72 hours for drug treatment. The cell viability after peptide/drug treatment was assayed with the Cell Titer Glo (CTG) assay (Promega, Madison, Wis., USA).
A general note: In ATP-based viability assays light output follows the ATP content of the culture.

The next assay deals with SUM102. Described as above. It is filed as cell-based. The conditions noted are these: SUM102, 8 hours. The method, then: as §1, §2
Another assay relates to SUM229. The description is as above. The assay is classed as cell-based. The conditions noted are these: SUM229, 8 hours. Here is the method:
as §1, §2

The next assay concerns MCF7. The assay is described as above. The conditions noted are these: MCF7, 8 hours. It is filed as cell-based. Here is the method:
as §1, §2

In another assay the test system is HUMEC. The description is as above. The assay is classed as cell-based. The conditions noted are these: 8 hours. Here is the method:
as §1, §2

The subject of another assay is MDA-MB-231. The assay is described as above. The assay is classed as cell-based. The conditions noted are these: MDA-MB-231, 8 hours. The method, then: as §1, §2
Assay [2] concerns mRNA levels of COLA1, COLA2, S1004A and DDIT3 (CHOP). In words: Real time PCR of downstream effectors of EPRS in SUM149PT cells. The assay is classed as cell-based, human. An excerpt: FIG. 6 EN1-Ipeps binds the endogenous Glutamyl-Prolyl tRNA synthetase (EPRS) target and regulates downstream EPRS effectors in breast cancer cells. (a) EN1-iPep624 (SEQ ID NO: 5) captures and binds EPRS from total extracts of SUM149-PT cells. Affinity-capture immunoprecipitation and western blot detection of EPRS using biotinylated iPeps as bait, and total extracts of SUM149-PT cells. Same input loading of extract is shown in the SDS-PAGE gel on the left. […] The immunoprecipitations were done at least three times and averages and standard errors between experiments are indicated (p<0.01*, p<0.001**). (b) Full length EN1 binds the endogenous EPRS in MDA-MB-231 and SUM149PT cells. Total extracts of MDA-MB-231 and SUM149PT expressing either a full length EN1 cDNA engineered with a N-terminal FLAG tag or an empty-vector control were processed by immunoprecipitation with an anti-FLAG antibody. Immunoprecipitated complexes were blotted with an EPRS-specific antibody to detect endogenous EPRS. The same amount of loaded extracts (INPUT) is shown with anti-tubulin as endogenous control. The enrichment of the immunoprecipitated products was determined by quantification of the bands by densitometry as described above, and data was normalized to iPep624ΔHEX (SEQ ID NO: 18) control. […] Cell viability was determined by a Cell Titer Glo assay and IC50 concentrations determined as described in FIG. 5. […]
(In qPCR the cycle at which signal appears reflects the starting amount.)

As for KKKRKVTDSQQPLVWPAWVYCTRYSDRPS [iPep624], the “caspase 3 activity” value in assay [1] was “significantly higher”. The cell viability result in the assay with SUM159PT is given as “decreased cell viability”; with SUM102, “decreased cell viability”; in the assay on SUM229 it was “decreased cell viability”; with MCF7, “no effect on cell viability”; in the assay with HUMEC, “no effect on cell viability”; with MDA-MB-231 it was “no effect on cell viability”. Also, the “DDIT3 mRNA in EN1-overexpressing cells” value in assay [2] (15 μM active iPep over control) is given as “significantly up-regulated”. Besides, the “up-regulation of COLA1, COLA2 and S1004A mRNA in EN1-overexpressing cells” value in assay [2] (15 μM active peptide) is listed as “significantly reverted”.
